Experiments:
Assay type in all cases: cell-based
human GPR40 [1] = molecular target: T1, human GPR40 (Homo sapiens, UniProt O14842); assay: FLIPR intracellular calcium assay in HEK-293 cells transiently expressing GPR40 (with G-protein cocktail); details: for EC50 / pEC50: Additional Fatty Acid Compounds
Excerpt: The Fluorometric Imaging Plate Reader (FLIPR™, Molecular Devices, UK) measures intracellular fluorescense in multi-well microplates. Where a GPCR couples to a calcium signalling pathway, the FLIPR system can be used with cells expressing the G-protein coupled receptor and containing calcium-sensitive fluorescent dyes, to monitor the intracellular calcium flux that occurs after activation of the G-coupled receptor. See, e.g., Kirk et al., J. Biomolecular Screening, 1:75 (1996).
(§1) The assays utilized a G-protein cocktail (+GPC) that contained chimeric and promiscuous G-proteins, as is known in the art of screening orphan G-protein coupled receptors.

human GPR40 [2] = molecular target: T1, human GPR40; assay: 3X-CRE-luciferase reporter assay in CHO cells (Gs coupling); parameters: expressed in transfected cells; host or cells: wild-type CHO cells, transient co-transfection (CMV-GPR40 + 3x-CRE-Luc); details: CRE-Luc; cells containing reporter only and cells containing GPR40; 4 hours of treatment; Figure 3c
Method: Specific coupling was determined in mammalian cells using transient expression of a CRE-luciferase reporter for Gαs and stable cell-lines containing Gal4/ELK-1-luciferase reporter for Gαq/Gαi. Wild-type CHO cells were co-transfected with 3X-CRE-luciferase reporter vector and various amounts of an expression vector for GPR40. The control cells were transfected with reporter vector only. The reporter gene plasmids were produced in house but similar vectors can be purchased from Stratagene ([…]®). Cells were plated in a 24 well tissue culture plate at 1 x 10^4 cells/well in DMEM/F12 supplemented with 5% FBS. After 72 hours at 37°C, 5% CO2, the cells were transfected using the liposomal transfection reagent sold under the trademark LIPOFECTAMINE® and with the following combinations of plasmids: • A- 3x-CRE-Luc • B- 3x-CRE-Luc + CMV-GPR40 • C- 3x-CRE-Luc + CMV-Gs coupled receptor The concentration of reporter plasmid for all wells was 0.15µg/well. Concentrations of receptor plasmids were 0.5, 1.0, 5.0, 10.0 ng/well. After 24hrs Cells containing 1ng/well of receptor plasmid or no DNA control and CRE-Luc reporter were treated with fatty acid or the calcitonin which is known to act through a Gs-coupled receptor (Chakraborty, Science 251: 1078 (1991)) at concentrations indicated. […]

human GPR40 [3] = molecular target: T1, human GPR40; assay: GAL4/Elk-1 luciferase reporter assay in CHO clones transfected with human GPR40, with and without pertussis toxin; parameters: expressed in transfected cells; host or cells: wild-type CHO cells, transient co-transfection (CMV-GPR40 + 3x-CRE-Luc); details: cells containing GPR40, Figure 4B
Excerpt: (§2) To further test the coupling of GPR40 to Gαi/Gαq a Gal4/Elk-1 reporter was used. A stable, clonal reporter line was created by transfecting CHO cells with a plasmid that contains an expression construct for GAL4/Elk-1 and a GAL4-luciferase reporter construct. A similar reporter system can now be purchased from Stratagene (under the trademark […]®). An expression construct for human GPR40 which contains a G418 resistance construct was transfected into the host CHO GAL4/Elk-1 reporter cell line (10ug plasmid DNA pCR3-GPR40) via electroporation. The cell lines were selected for with 500ug/mL G418 until all cells in the control were dead and clones were then picked. The Gal4/Elk-1 reporter can be activated through Gq or Gi. To confirm coupling via Gi, cells were treated with pertussis toxin treatment which ADP-ribosylates Gαi preventing its interaction with receptors (Bokoch et al., J. Biol. Chem 258:2072 (1983)). Pertussis toxin has no known effect on Gαq.
(§3) Host cells and those transfected with the GPR40 construct were plated in a 96-well tissue culture plate at 2000 cells/well in DMEM/F12 supplemented with 5% FBS. After 48 hours at 37°C at 5% CO2 the cells were placed in serum-free DMEM/F12 in the presence or absence of 1ug/ml pertussis toxin. […]

[4] = test system: CHO GAL4/Elk-1 reporter cell line; assay: GAL4/Elk-1 luciferase reporter assay in host CHO cells (reporter only), with and without pertussis toxin
Excerpt: as §2, §3

HLTEX11 = assay: FLIPR intracellular calcium assay in HEK-293 cells transiently expressing control 7TM receptor HLTEX11; details: HEK-293 cells transiently expressing HLTEX11; Figure 1
Excerpt: as §1

PGRW = assay: FLIPR intracellular calcium assay in HEK-293 cells transiently expressing control 7TM receptor PGRW; details: HEK-293 cells transiently expressing PGRW; Figure 1
Excerpt: as §1

T1 sequence (O14842 whole entry): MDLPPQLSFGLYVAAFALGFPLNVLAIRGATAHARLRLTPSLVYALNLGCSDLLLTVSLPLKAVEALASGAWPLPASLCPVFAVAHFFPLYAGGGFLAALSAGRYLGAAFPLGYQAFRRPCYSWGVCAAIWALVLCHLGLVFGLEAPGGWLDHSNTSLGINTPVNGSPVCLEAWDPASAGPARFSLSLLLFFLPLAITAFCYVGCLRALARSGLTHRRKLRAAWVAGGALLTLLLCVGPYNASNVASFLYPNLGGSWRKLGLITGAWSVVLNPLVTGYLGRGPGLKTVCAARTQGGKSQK

Compound | pEC50 (human GPR40 [1]; FLIPR) | also measured
CCCCC[C@H](O)[C@H](O)/C=C/C=C/C=C\C/C=C\CCCC(=O)O [14®, 15(S)-DiHETE] | 4.63 | EC50 (human GPR40 [1]; FLIPR): 23.4 µM
calcitonin | – | luciferase production (human GPR40 [2]): increase
CCCCCCCCC#CCC#CCC#CCCCC(=O)O [5,8,11-Eicosatriynoic acid] | 5.77 | effect of pertussis toxin treatment on the stimulated luciferase activity (human GPR40 [3]; 1ug/ml pertussis toxin): not inhibited; luciferase activity compared to basal (human GPR40 [3]): increased; luciferase production ([4]; Figure 4B): no effect; luciferase production (human GPR40 [2]): no effect
CC/C=C\C/C=C\C/C=C\CCCCCCCCCC(=O)O [Eicosa-11Z,14Z,17Z-trienoic acid] | 4.95 | –
CCC=CCC=CCC=CCC=CCC=CC/C=C\CCC(=O)O [cis-4,7,10,13,16,19-Docosahexaenoic acid] | 5.79 | –
CC/C=C\C/C=C\C/C=C\C/C=C\C/C=C\CCCCCC(=O)O [Docosa-7Z,10Z,13Z,16Z,19Z-pentaenoic acid] | 5.33 | –
CCCCCCCCCCC/C=C\C/C=C\CCCC(=O)O [Eicosa-5Z,8Z-dienoic acid] | 5.11 | –
CCCCC/C=C\C/C=C\CCCCCCCCCC(=O)O [Eicosa-11Z,14Z-dienoic acid] | 4.97 | –
CCCCC/C=C\C/C=C\C/C=C\C/C=C\CCCCCC(=O)O [Adrenic acid] | 4.87 | EC50 (human GPR40 [1]; FLIPR): 13.5 µM
CC1=C(/C=C/C(C)=C/C=C/C(C)=C/C=O)C(C)(C)CCC1 [All-trans-retinal] | – | Mean pEC50 of 3 expts (human GPR40 [1]; mean over experiments (n=1 or n=2 where printed), FLIPR): 4.16
CCCCCCCC/C=C\CCCCCCCC(=O)OC[C@@H](O)COP(=O)(O)O [LPA, lysophosphatidic acid (oleoyl)] | – | agonist-stimulated reporter activity following pertussis toxin treatment ([4]; 1ug/ml pertussis toxin, Figures 4A, 4C): completely abolished
CC/C=C\C/C=C\C/C=C\CCCCCCCCCCCC(=O)O [Docosa-13Z,16Z,19Z-trienoic acid] | 5.17 | –
CCCCCCCC/C=C\C/C=C\C/C=C\CCCC(=O)O [Mean acid] | 5.60 | EC50 (human GPR40 [1]; FLIPR): 2.51 µM
CCCCCCCC/C=C/CCCCCCCC(=O)O [Elaidic acid] | 4.87 | FLIPR response (HLTEX11): No response; FLIPR response (PGRW): No response; FLIPR response (intracellular calcium levels) (human GPR40 [1]; HEK-293 cells transiently expressing GPR40, +GPC, Figure 1): response detected
CCCCC/C=C\C/C=C\CCCCCCCC(=O)O [Linoleic acid] | 5.02 | –
CCCCC/C=C\C/C=C\C/C=C\C/C=C\CCCC(=O)O [Arachidonic acid] | 5.04 | –
CC/C=C\C/C=C\C/C=C\C/C=C\C/C=C\CCCC(=O)O [Eicosa-5Z,8Z,11Z,14Z,17Z-pentaenoic acid] | 5.17 | –
C#CCCCCCCCCCCCCCCCC(=O)O [17-Octadecynoic acid] | 5.12 | –
CCCCC/C=C\C/C=C\C/C=C\CCCCCCC(=O)O [Dihomo-gamma-linolenic acid] | 5.14 | –

Reference: EP1354200B1, “METHOD OF SCREENING FOR GPR40 LIGANDS” (priority 2000, dated 2002)
